The record followed here is ChEMBL document CHEMBL5370557, “Structure-based discovery of IHMT-IDH1-053 as a potent irreversible IDH1 mutant selective inhibitor” (Eur J Med Chem, 2023).

Test [1] has as its target T1, Isocitrate dehydrogenase [NADP] cytoplasmic (Homo sapiens, UniProt O75874, R132H). Description: Inhibition of IDH1 R132H mutant (unknown origin) expressed in HEK293T cells assessed as inhibition of 2-HG generation measured after 48 hrs by LC-MS/MS analysis. Format: cell-based.
Test [2] has as its target T1, Isocitrate dehydrogenase [NADP] cytoplasmic. Briefly: Inhibition of IDH1 R132H mutant (unknown origin) expressed in Escherichia coli BL21 (DE3) assessed as NADPH consumption using alpha-KG as substrate measured after 60 mins.
The target of test [3] is T2, Isocitrate dehydrogenase [NADP], mitochondrial (Homo sapiens, UniProt P48735).
T2 sequence (P48735 whole entry): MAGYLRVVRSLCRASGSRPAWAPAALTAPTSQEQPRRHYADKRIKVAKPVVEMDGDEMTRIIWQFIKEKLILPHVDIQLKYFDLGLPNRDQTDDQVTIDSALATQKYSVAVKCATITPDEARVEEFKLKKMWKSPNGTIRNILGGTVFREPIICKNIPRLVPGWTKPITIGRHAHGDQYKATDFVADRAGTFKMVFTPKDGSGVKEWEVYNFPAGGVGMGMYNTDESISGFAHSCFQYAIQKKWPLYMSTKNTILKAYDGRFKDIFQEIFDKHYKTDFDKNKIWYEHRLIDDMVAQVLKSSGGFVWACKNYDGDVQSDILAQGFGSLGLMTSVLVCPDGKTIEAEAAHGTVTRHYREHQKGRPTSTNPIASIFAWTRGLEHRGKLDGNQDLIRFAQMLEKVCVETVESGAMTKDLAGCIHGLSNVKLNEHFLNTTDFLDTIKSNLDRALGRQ
Description: Inhibition of wild type IDH2 (unknown origin) expressed in Escherichia coli BL21 (DE3) assessed as NADPH consumption using alpha-KG as substrate measured after 60 mins.

Test [4] has as its target Isocitrate dehydrogenase [NADP], mitochondrial (Homo sapiens, UniProt P48735, R172K). Description: Inhibition of IDH2 R172K mutant (unknown origin) expressed in Escherichia coli BL21 (DE3) assessed as NADPH consumption using alpha-KG as substrate measured after 60 mins.
In test [5] the target is Isocitrate dehydrogenase [NADP], mitochondrial (Homo sapiens, UniProt P48735, R140Q). Description: Inhibition of IDH2 R140Q mutant (unknown origin) expressed in Escherichia coli BL21 (DE3) assessed as NADPH consumption using alpha-KG as substrate measured after 60 mins.
Chain of Isocitrate dehydrogenase [NADP], mitochondrial (Homo sapiens, UniProt P48735, R140Q) (P48735 40-452 R140Q limits assumed): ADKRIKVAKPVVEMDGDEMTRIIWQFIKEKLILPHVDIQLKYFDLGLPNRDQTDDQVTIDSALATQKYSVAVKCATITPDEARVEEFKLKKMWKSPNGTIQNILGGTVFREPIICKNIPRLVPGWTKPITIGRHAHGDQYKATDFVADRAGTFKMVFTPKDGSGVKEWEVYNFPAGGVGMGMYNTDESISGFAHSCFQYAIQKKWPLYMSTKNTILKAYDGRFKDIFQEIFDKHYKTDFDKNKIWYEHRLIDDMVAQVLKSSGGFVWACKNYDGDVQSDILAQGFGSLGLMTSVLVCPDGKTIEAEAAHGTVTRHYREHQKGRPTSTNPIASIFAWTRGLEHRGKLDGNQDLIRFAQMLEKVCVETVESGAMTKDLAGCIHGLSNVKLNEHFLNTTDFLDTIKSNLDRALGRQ

T1 sequence (O75874 2-414 R132H limits assumed): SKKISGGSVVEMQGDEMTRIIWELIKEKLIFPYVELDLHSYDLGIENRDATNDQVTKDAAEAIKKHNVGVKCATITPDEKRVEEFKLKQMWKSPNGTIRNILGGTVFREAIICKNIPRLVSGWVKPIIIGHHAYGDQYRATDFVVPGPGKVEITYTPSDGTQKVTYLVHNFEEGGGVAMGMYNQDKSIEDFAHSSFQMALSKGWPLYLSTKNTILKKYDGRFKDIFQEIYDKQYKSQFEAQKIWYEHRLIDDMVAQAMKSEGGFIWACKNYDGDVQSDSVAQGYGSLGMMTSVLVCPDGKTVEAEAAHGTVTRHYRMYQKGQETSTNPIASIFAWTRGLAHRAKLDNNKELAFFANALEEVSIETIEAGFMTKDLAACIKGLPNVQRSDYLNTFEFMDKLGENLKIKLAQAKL
Chain of Isocitrate dehydrogenase [NADP], mitochondrial (Homo sapiens, UniProt P48735, R172K) (P48735 40-452 R172K limits assumed): as the sequence (P48735 40-452 R140Q limits assumed) above, with Q101R, R133K counted along it

A word on the IC50: it is the concentration that gives 50% inhibition. For `C=CS(=O)(=O)Nc1ccc(Nc2ccc([C@H](C)Nc3ncc(F)c(N4C(=O)OC[C@@H]4C(C)C)n3)cc2)cc1C`, the IC50 in test [1] turned out to be 866 nM; in test [2] it was 88 nM.
As for `C=CS(=O)(=O)Nc1ccc(Nc2ccc([C@H](C)Nc3ncc(F)c(N4C(=O)OC[C@@H]4C(C)C)n3)cc2)cc1N(C)C`, the IC50 stood at 1250 nM in test [1] and 48 nM in test [2].
On the same counts, the results for `C=CC(=O)NC1CCCN(c2ccc([C@H](C)Nc3ncc(F)c(N4C(=O)OC[C@@H]4C(C)C)n3)cc2)C1` (stereo partly specified) are 295 nM and 440 nM.
As for `C=CS(=O)(=O)Nc1ccc(Nc2ccc([C@H](C)Nc3ncc(F)c(N4C(=O)OC[C@@H]4C(C)C)n3)cc2)cc1N1CCOCC1`, the half-maximal inhibitory concentration (IC50) in test [1] came out at 1500 nM; in test [2], 87 nM.
On the same counts, the results for `C=CS(=O)(=O)Nc1ccc(Nc2ccc([C@H](C)Nc3ncc(F)c(N4C(=O)OC[C@@H]4C(C)C)n3)cc2)cc1OC` are 4750 nM and 55 nM.
Turning to `C=CS(=O)(=O)Nc1ccc(Nc2ccc([C@H](C)Nc3nccc(N4C(=O)OC[C@@H]4C(C)C)n3)cc2)cc1N1CCN(CC)CC1`, the IC50 in test [2] was 547 nM.
As for `C=CC(=O)Nc1ccc(Nc2ccc([C@H](C)Nc3ncc(F)c(N4C(=O)OC[C@@H]4C(C)C)n3)cc2)cc1N1CCOCC1`, the results for the IC50 in test [1] and in test [2] were 331 nM and 976 nM, respectively.
`C=CC(=O)Nc1cc(-c2ccc([C@H](C)Nc3ncc(F)c(N4C(=O)OC[C@@H]4C(C)C)n3)cc2)ccc1N(C)C`: in test [2], the IC50 was 630 nM.
Take `C=CS(=O)(=O)Nc1ccc(Nc2ccc([C@H](C)Nc3ncc(F)c(N4C(=O)OC[C@@H]4C(C)C)n3)cc2)cc1N1CCN(CC)CC1`: the IC50 stood at 864 nM in test [1] and 245 nM in test [2].
The matching figures for `CCC(=O)Nc1cc(Nc2ccc([C@H](C)Nc3ncc(F)c(N4C(=O)OC[C@@H]4C(C)C)n3)cc2)ccc1N1CCOCC1`: 126 nM and 77 nM.
For the compound `CCC(=O)NC1CCN(c2ccc([C@H](C)Nc3ncc(F)c(N4C(=O)OC[C@@H]4C(C)C)n3)cc2)CC1`, the IC50 in test [2] came to 198 nM.
Take `N#Cc1ccnc(N2C(=O)CC[C@H]2C(=O)N(c2cncc(F)c2)[C@H](C(=O)NC2CC(F)(F)C2)c2ccccc2Cl)c1` [IVOSIDENIB]: the half-inhibitory concentration (IC50) in test [3], in test [4] and in test [5] was more than 10000 nM each time.
`C=CS(=O)(=O)N1CCC(Nc2ccc([C@H](C)Nc3ncc(F)c(N4C(=O)OC[C@@H]4C(C)C)n3)cc2)CC1`: the IC50 in test [1] turned out to be 129 nM; in test [2], 42 nM.
As for `C=CC(=O)NC1CCN(c2ccc([C@H](C)Nc3nccc(N4C(=O)OC[C@@H]4C(C)C)n3)cc2)CC1`, the concentration for half-maximal inhibition (IC50) in test [2] was determined as 6510 nM.
Take `C=CS(=O)(=O)Nc1ccc(Nc2ccc([C@H](C)Nc3ccc(C#N)cn3)cc2)cc1N(C)C`: the concentration for half-maximal inhibition (IC50) in test [2] was found to be 6320 nM.
Regarding `C=CS(=O)(=O)NC1CCCN(c2ccc([C@H](C)Nc3ncc(F)c(N4C(=O)OC[C@@H]4C(C)C)n3)cc2)C1` (stereo partly specified), the concentration for half-maximal inhibition (IC50) was 214 nM in test [1] and 119 nM in test [2].
The matching figures for `C=CS(=O)(=O)Nc1cc(Nc2ccc([C@H](C)Nc3ncc(F)c(N4C(=O)OC[C@@H]4C(C)C)n3)cc2)ccc1N(C)C`: 367 nM and 151 nM.
Regarding `CCC(=O)NC1CCCN(c2ccc([C@H](C)Nc3ncc(F)c(N4C(=O)OC[C@@H]4C(C)C)n3)cc2)C1` (stereo partly specified), the IC50 in test [2] was determined as 670 nM.
On the same count and under the same terms, the same measure for `CCC(=O)Nc1cc(-c2ccc([C@H](C)Nc3ncc(F)c(N4C(=O)OC[C@@H]4C(C)C)n3)cc2)ccc1N(C)C`: 741 nM; for `CCS(=O)(=O)Nc1ccc(Nc2ccc([C@H](C)Nc3ccc(C#N)cn3)cc2)cc1N(C)C`: 2770 nM; for `CCC(=O)Nc1ccc(Nc2ccc([C@H](C)Nc3nccc(N4C(=O)OC[C@@H]4C(C)C)n3)cc2)cc1N1CCN(CC)CC1`: 2760 nM.
As for `CCS(=O)(=O)NC1CCN(c2ccc([C@H](C)Nc3ncc(C#N)cn3)cc2)CC1`, the IC50 in test [2] worked out at 3490 nM.
Consider `CCS(=O)(=O)N1CCC(Nc2ccc([C@H](C)Nc3nccc(N4C(=O)OC[C@@H]4C(C)C)n3)cc2)CC1`, for which the concentration for half-maximal inhibition (IC50) in test [2] came out at 594 nM.
In the case of `CCS(=O)(=O)NC1CCN(c2ccc([C@H](C)Nc3ncc(F)c(N4C(=O)OC[C@@H]4C(C)C)n3)cc2)CC1`, the values for the IC50 in test [1] and in test [2] were 1470 nM and 143 nM, respectively.
`C=CC(=O)Nc1cc(Nc2ccc([C@H](C)Nc3ncc(F)c(N4C(=O)OC[C@@H]4C(C)C)n3)cc2)ccc1N1CCOCC1`: the IC50 in test [1] came out at 288 nM; in test [2], 205 nM.
In the case of `CCC(=O)Nc1cc(Nc2ccc([C@H](C)Nc3ncc(F)c(N4C(=O)OC[C@@H]4C(C)C)n3)cc2)ccc1N(C)C`, in test [2], the half-maximal inhibitory concentration (IC50) is 932 nM.
For `CCC(=O)Nc1ccc(Nc2ccc([C@H](C)Nc3ncc(F)c(N4C(=O)OC[C@@H]4C(C)C)n3)cc2)cc1N1CCOCC1`, the 50% inhibitory concentration (IC50) was 10000 nM in test [1] and more than 10000 nM in test [2].
On the same counts, the results for `C=CS(=O)(=O)N1CCC(Nc2ccc([C@H](C)Nc3nccc(N4C(=O)OC[C@@H]4C(C)C)n3)cc2)CC1` are 171 nM and 161 nM.
As to `CCS(=O)(=O)NC1CCN(c2ccc([C@H](C)Nc3nccc(N4C(=O)OC[C@@H]4C(C)C)n3)cc2)CC1`, in test [2], the IC50 came out at 541 nM.
`C=CS(=O)(=O)NC1CCN(c2ccc([C@H](C)Nc3nccc(N4C(=O)OC[C@@H]4C(C)C)n3)cc2)CC1`: the IC50 was determined as 37 nM in test [1] and 192 nM in test [2].
`CC(C)[C@H]1COC(=O)N1c1nc(N[C@@H](C)c2ccc(N3CCCC(NC(=O)CCl)C3)cc2)ncc1F` (stereo partly specified): the 50% inhibitory concentration (IC50) in test [2] was 516 nM.
Still for that read-out and setting: the figure for `C=CC(=O)Nc1ccc(Nc2ccc([C@H](C)Nc3ccc(C#N)cn3)cc2)cc1N(C)C` is 6130 nM.
On to `C=CC(=O)NC1CCN(c2ccc([C@H](C)Nc3ncc(F)c(N4C(=O)OC[C@@H]4C(C)C)n3)cc2)CC1`, for which the values for the IC50 in test [1] and in test [2] were 462 nM and 187 nM, respectively.
On to `C=CS(=O)(=O)Nc1ccc(Nc2ccc([C@H](C)Nc3ncc(F)c(N4C(=O)OC[C@@H]4C(C)C)n3)cc2)cc1F`, for which the IC50 in test [1] was 45 nM; in test [2], 5.9 nM.
In the case of `C=CC(=O)Nc1cc(Nc2ccc([C@H](C)Nc3ncc(F)c(N4C(=O)OC[C@@H]4C(C)C)n3)cc2)ccc1N(C)C`, the half-inhibitory concentration (IC50) in test [1] was 114 nM; in test [2] it was 155 nM.
For the compound `CC(C)[C@H]1COC(=O)N1c1nc(N[C@@H](C)c2ccc(N3CCC(NC(=O)CCl)CC3)cc2)ncc1F`, in test [2], the IC50 is 87 nM.
Same read-out and setting: the figure for `C=CC(=O)Nc1ccc(Nc2ccc([C@H](C)Nc3nccc(N4C(=O)OC[C@@H]4C(C)C)n3)cc2)cc1N1CCN(CC)CC1` is 898 nM.
As for `CC(C)[C@H]1COC(=O)N1c1nc(N[C@@H](C)c2ccc(Nc3ccc(NC(=O)CCl)c(N4CCOCC4)c3)cc2)ncc1F`, the half-inhibitory concentration (IC50) was 10000 nM in test [1] and more than 10000 nM in test [2].
Take `C=CS(=O)(=O)NC1CCN(c2ccc([C@H](C)Nc3ncc(C#N)cn3)cc2)CC1`: the IC50 in test [2] came out at 4490 nM.
